Laboratory results taken from a melting point compilation (Tetko et al.; mined from patent text by program, amines drawn as free bases though some values may be those of a salt).

Q: For CC(Cc1ccc(OCCNC(=O)c2ccc(-c3ccccn3)cc2)cc1)(Oc1ccccc1)C(=O)O (centres undefined), which melting point is on record?
A: 76 to 79 °C

Q: With Nc1nc(Oc2ccc(C(F)(F)F)cc2Cl)ccc1[N+](=O)[O-] as the compound, how does the melting point read?
A: 80 to 84 °C

Q: Which melting point does the source give for CCOC(C)n1c(CCc2cccc(O)c2)nc(-c2ccccc2)c1-c1ccccc1 (centres undefined) here?
A: 166 to 167 °C

Q: For CCCOC(=O)Nc1nc2ccccc2c2c1nc(CC)n2CCCCNS(C)(=O)=O, which melting point is on record?
A: 155 to 157 °C

Q: With CCCCCS(=O)(=O)NC(=O)/C=C/c1ccc(OCCOC)cc1Nc1ccc(C(F)(F)F)cc1 as the compound, how does the melting point read?
A: 142 to 143 °C

Q: With O=S(=O)(c1cccc(F)c1)c1ccc2[nH]c3c(c2c1)CCNCC3 as the compound, how does the melting point read?
A: 153 to 156 °C

Q: Which melting point does the source give for CC(C)C(NC(=O)OC(C)(C)C)C(=O)NC(C(=O)OCC1OC(n2cc(C=CBr)c(=O)[nH]c2=O)CC1Cl)C(C)C (centres undefined) here?
A: 102 to 103 °C

Q: With C#CCS(=O)(=O)c1cccc([N+](=O)[O-])c1 as the compound, how does the melting point read?
A: 250 to 255 °C

Q: For N#Cc1cn(-c2ccc(Cl)c(Cl)c2)c(=O)[nH]c1=O, which melting point is on record?
A: 206 to 208 °C

Q: With NC(=O)c1ccc2[nH]cc(CCN3C(=O)c4ccccc4C3=O)c2c1 as the compound, how does the melting point read?
A: 254 to 256 °C

Q: For Cc1ccc(S(=O)(=O)OC[C@@H]2CCCN(C)C2)cc1, which melting point is on record?
A: 74.5 to 81 °C

Q: For NC(=CC(=O)[C@H](Cc1ccccc1)N(Cc1ccccc1)Cc1ccccc1)Cc1ccccc1, which melting point is on record?
A: 101 to 102 °C

Q: Which melting point does the source give for Fc1cc(-c2ccno2)c(Cl)cc1Cl here?
A: 112 to 113 °C

Q: With O=c1cc(Nc2cccc(-c3ccncc3)c2)c1=O as the compound, how does the melting point read?
A: 252 to 256 °C

Q: Which melting point does the source give for O=C(NCCCl)NCc1cccnc1 here?
A: 95 °C

Q: Which melting point does the source give for COc1ccc(Nc2ccccc2C=C(Br)Br)cc1OC here?
A: 83 to 85 °C

Q: Which melting point does the source give for Cc1ccc2c(c1F)N(C1CC1)C=NS2(=O)=O here?
A: 189 to 192 °C

Q: With CCCCCCCCCCCCCCCCCCOc1cc(OCCCCCCOc2ccc(OCc3ccccc3)cc2)cc(C(=O)OCc2ccccc2)c1 as the compound, how does the melting point read?
A: 60 to 62 °C

Q: With O=C(NNC(=O)c1ccnc2[nH]ccc12)OCc1ccccc1 as the compound, how does the melting point read?
A: 203 to 204 °C

Q: Which melting point does the source give for CCOC(=O)C(CC(=O)OC1CC2CCC1(C)C2(C)C)(NC(=O)OCc1ccccc1)C(N)=O (centres undefined) here?
A: 105 to 106 °C

Q: For O=C(Cn1nccc1-c1ccc(Oc2ccc(F)cc2)cc1)N1CCCC1, which melting point is on record?
A: 90 to 95 °C

Q: For Cc1c(Cc2ccc(Cl)cc2)cccc1[N+](=O)[O-], which melting point is on record?
A: 84 to 85 °C

Q: For CC1(Br)Cc2cc(C(=O)O)ccc2C1=O (centres undefined), which melting point is on record?
A: 203 to 205 °C

Q: Which melting point does the source give for COc1ccc(C(=O)C(CCC(=O)c2ccc(F)cc2)c2ccc(OC)cc2)cc1 (centres undefined) here?
A: 71 to 74 °C

Q: For Cc1ccc2c(n1)C(=O)N(c1cccc3ccccc13)C2=O, which melting point is on record?
A: 200 to 205 °C

Q: Which melting point does the source give for CN1C(=O)C2C3CCC(C3)C2(c2ccc(F)c(F)c2)C1=O (centres undefined) here?
A: 96 to 100 °C

Q: Which melting point does the source give for N#Cc1ccccc1OCCCCCC(=O)O here?
A: 77 to 80 °C

Q: For CCOC(=O)C1=C(C)NC(N)=C(C(=O)OC(C)C)C1c1ccccc1[N+](=O)[O-] (centres undefined), which melting point is on record?
A: 139 °C

Q: Which melting point does the source give for Cc1ccc(C2(n3ccnc3)c3ccccc3C(=O)c3ccccc32)cc1 here?
A: 200 to 204 °C

Q: Which melting point does the source give for Cc1cccc(C)c1C(=O)Nc1ccc(OCCN2CCOCC2)cc1 here?
A: 177 to 190 °C

Q: With CC1(c2ccc(F)cc2)NOCC1CN(O)C(N)=O (centres undefined) as the compound, how does the melting point read?
A: 135 to 137 °C

Q: For CC1NC(=O)NN=C1c1ccc(N)cc1 (centres undefined), which melting point is on record?
A: 248 to 250 °C

Q: With O=c1c2cccnc2c(-c2ccccc2)nn1-c1ccccc1 as the compound, how does the melting point read?
A: 174 to 176 °C

Q: Which melting point does the source give for C=CCn1c(-c2cccnc2)nn(CCCCN2CCN(c3ccccc3OC)CC2)c1=O here?
A: 71 to 75 °C

Q: For Cc1nn(-c2cc(OC(F)F)n(C)n2)c(-c2ccc(Cl)cc2)c1CC(=O)O, which melting point is on record?
A: 112 °C

Q: Which melting point does the source give for Cc1cc(-c2ccc(C(F)(F)F)nc2)cc(-c2cccc(-c3cccc(S(N)(=O)=O)c3)n2)n1 here?
A: 233 to 234 °C

Q: Which melting point does the source give for COCCOC[C@H](CC1(C(=O)O)CCCC1)C(=O)OC(C)(C)C here?
A: 86 to 87 °C

Q: Which melting point does the source give for O=C(O)COc1cc(Cl)sc1C(=O)O here?
A: 214 °C

Q: With COc1ccc2c(c1)CC(N(CC(=O)O)C(=O)C(C)CSC(C)=O)CC2 (centres undefined) as the compound, how does the melting point read?
A: 147 to 150 °C
